Measured values taken from paper PMC8216263 (Pharmaceutical Biology, 2021).

Tests used:
MDR1 = biological target: T1, MDR1 (Homo sapiens, UniProt P08183); experiment: Inhibition of MDR1-mediated rhodamine 123 efflux in MDCK-MDR1 cells; format: cell-based; settings: for inhibitory effect on efflux of MDR1-mediated rhodamine 123: GA 50–5000 μg/L, PCA 10–1000 μg/L
T1 construct: host or cells: MDCK
Source text: The human multidrug resistance protein (MDR)1-transfected Madin–Darby Canine Kidney (MDCK) cells, human breast cancer resistance protein (BCRP)-transfected MDCK cells, human organic anion transporter (OAT)1-transfected MDCK cells, OAT3-transfected second portion of proximal tubule (S2) cells, human organic cation transporter (OCT)2-transfected S2 cells, human organic anion transporting polypeptide (OATP)1B1-transfected human embryonic kidney 293 (HEK293) cells and their MOCK cells were kindly provided by Japan Fuji Biomedical Co., Ltd. (Osaka, Japan). Cells were cultured in DMEM supplemented with 10% FBS, 100 units/mL penicillin and 100 […]. All cells were incubated in a humidified atmosphere of 95% air and 5% CO2 at 37 °C. A solution of 0.25% trypsin-EDTA was used to detach the cells from flasks. Cell culture flasks, 24-well cell culture plates, and transwell polycarbonate inserts (12 mm diameter, 0.4 μm pore size) were purchased from Corning Co-star Corp. (Bedford, MA).
Inhibitory effects of GA and PCA on efflux transporters MDR1 and BCRP were investigated with the fluorogenic substrates rhodamine 123 (10 µM) and lucifer yellow (10 µM), respectively. The positive control inhibitors of MDR1 and BCRP were verapamil (10 µM) and cyclosporine (20 µM), respectively. The efflux experiments were adapted from previously reported methods with minor modifications (Reznicek et al. [2017]). Briefly, MDCK-MDR1, MDCK-BCRP and MDCK-mock cells were trypsinized and uniformly suspended in the designated volume of HBSS to provide a density of 4.0 × 10^5 cells/mL. For 0.5 mL of cell suspension and 1.5 mL of HBSS buffer medium were added in the apical and basolateral compartments of 12-well Transwell plates. After cultivation for 7 d, cells were washed twice and equilibrated for 30 min at 37 °C with the pre-warmed HBSS buffer. The integrity of cell monolayers was verified by the determination of the value of transepithelial electrical resistance (TEER) using a Millipore Millicell-ERS system (Millipore Corporation, Bedford, MA) (200–300 Ω × cm^2). An aliquot of 1.5 mL transport buffer containing probe substrates was added in the basolateral compartment to initiate the efflux in the presence or absence of GA (50, 150, 500, 1500 and 5000 μg/L), PCA (10, 30, 100, 300 and 1000 μg/L) or positive inhibitors at 37 °C. An aliquot of 0.5 mL empty transport buffer was placed in the apical compartment. After 2 h of co-incubation, 100 μL of HBSS in the apical compartment was transferred to 96-well plates. Fluorescence was measured at 485 nm (excitation) and 546 nm (emission) for rhodamine 123, and 425 nm (excitation) and 528 nm (emission) for Lucifer yellow. The final concentration of DMSO in the assay was less than 0.1%. All experiments were performed in triplicate.

[1] = Stability of GA and PCA in quality control samples (biological matrix); format: physicochemical, human; settings: for Long-term Stability: 3 months at −80 °C; for Post-preparative Stability: 24 h at 4 °C, n = 3; for Bench-top Stability: 24 h at 25 °C
Description: The analytical method’s validation was conducted according to the FDA’s Bio-analytical Method Validation guidance (USFDA [2018]). Blank samples were obtained from six subjects for selectivity. The calibration curves were assessed by plotting the peak response ratio against the nominal concentrations of GA (1.00, 2.00, 10.0, 40.0, 100, 200, 320 and 400 μg/L) and PCA (0.50, 1.00, 5.00, 20.0, 50.0, 100, 160 and 200 μg/L). The low, medium and high QC concentrations were 3.00, 60.0 and 300 μg/L and 1.50, 30.0 and 150 μg/L for GA and PCA, respectively. Intra- and inter-day accuracy and precision were measured using six replicates of QCs in three separate batches. QCs’ acceptance criteria were ± 15% SD of nominal values, and the precision was ± 15% RSD, except for LLOQ ± 20% SD. The matrix effect and recovery were investigated using six lots of blank matrix from individual sources. Stability was assessed by spiking low and high QCs in blank samples using four conditions: for post-preparative stability (24 h at 4 °C), bench-top stability (24 h at 25 °C), long-term stability (3 months at −80 °C) and freeze-thaw stability (for three cycles).

[2] = high QC (GA 300.0, PCA 150.0 μg/L)
[3] = low QC (GA 3.00, PCA 1.50 μg/L)

T1 sequence (P08183 whole entry): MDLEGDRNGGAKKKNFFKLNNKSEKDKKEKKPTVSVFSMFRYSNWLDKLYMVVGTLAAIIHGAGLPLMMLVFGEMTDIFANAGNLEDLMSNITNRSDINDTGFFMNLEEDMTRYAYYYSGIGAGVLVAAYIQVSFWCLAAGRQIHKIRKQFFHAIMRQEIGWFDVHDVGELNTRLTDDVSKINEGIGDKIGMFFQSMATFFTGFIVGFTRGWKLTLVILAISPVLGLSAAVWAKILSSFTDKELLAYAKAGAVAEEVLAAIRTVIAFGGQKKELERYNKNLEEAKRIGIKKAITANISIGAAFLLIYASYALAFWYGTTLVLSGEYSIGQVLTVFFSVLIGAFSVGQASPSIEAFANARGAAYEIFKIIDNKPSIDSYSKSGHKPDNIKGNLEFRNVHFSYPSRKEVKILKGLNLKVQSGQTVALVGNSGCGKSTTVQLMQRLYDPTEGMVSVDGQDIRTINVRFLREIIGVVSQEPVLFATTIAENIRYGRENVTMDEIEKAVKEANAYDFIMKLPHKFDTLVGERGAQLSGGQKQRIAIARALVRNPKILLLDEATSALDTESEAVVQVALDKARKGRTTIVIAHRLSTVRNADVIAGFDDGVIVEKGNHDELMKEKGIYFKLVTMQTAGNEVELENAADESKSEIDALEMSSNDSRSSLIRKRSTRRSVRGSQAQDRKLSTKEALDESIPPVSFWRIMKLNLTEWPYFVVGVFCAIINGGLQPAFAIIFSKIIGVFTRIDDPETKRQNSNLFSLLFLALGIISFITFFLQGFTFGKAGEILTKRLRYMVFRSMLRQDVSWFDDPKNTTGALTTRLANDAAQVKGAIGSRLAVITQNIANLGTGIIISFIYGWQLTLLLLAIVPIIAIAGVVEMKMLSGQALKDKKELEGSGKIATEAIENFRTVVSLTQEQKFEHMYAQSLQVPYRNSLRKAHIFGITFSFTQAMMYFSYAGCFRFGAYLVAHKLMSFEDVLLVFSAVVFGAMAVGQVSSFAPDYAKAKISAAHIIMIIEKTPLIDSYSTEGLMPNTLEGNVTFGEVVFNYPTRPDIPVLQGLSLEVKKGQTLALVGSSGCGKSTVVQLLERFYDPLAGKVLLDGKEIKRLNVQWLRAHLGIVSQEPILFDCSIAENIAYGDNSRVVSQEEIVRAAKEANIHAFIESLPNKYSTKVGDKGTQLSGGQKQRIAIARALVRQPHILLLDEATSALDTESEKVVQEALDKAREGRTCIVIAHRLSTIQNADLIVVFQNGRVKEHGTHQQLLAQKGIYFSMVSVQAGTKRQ

Structure (SMILES)	inhibitory effect on efflux of MDR1-mediated rhodamine 123 (MDR1)	efflux of rhodamine 123 compared with the control (MDR1; relatively high concentrations)	Long-term Stability [1, 2] [%]	Long-term Stability [1, 3] [%]	Post-preparative Stability [1, 2] [%]	Post-preparative Stability [1, 3] [%]	Bench-top Stability [1, 2] [%]	Bench-top Stability [1, 3] [%]	Three freeze-thaw cycles Stability [1, 2] [%]	Three freeze-thaw cycles Stability [1, 3] [%]	activity at 2 h, 6.5 µM (MDR1; human, probe rhodamine 123 (10 µM), MDCK-MDR1 cells, PCA 1000 μg/L (6.5 µM), read-out: efflux of rhodamine 123, % of control) [%]
O=C(O)c1cc(O)c(O)c(O)c1 [GA, gallic acid]	no significant inhibitory effect	significant increase	93.68	99.70	94.37	88.48	94.81	98.11	93.17	85.89	
O=C(O)c1ccc(O)c(O)c1 [PCA, protocatechuic acid]	no significant inhibitory effect		93.67	99.04	96.93	90.60	95.44	97.69	94.22	87.22	~190
